Key:
[1] = target: Voltage-gated inwardly rectifying potassium channel KCNH2 (Homo sapiens, UniProt Q12809)
Description: Inhibition of human ERG expressed in CHO cells at -80 mV holding potential by whole cell patch clamp assay

[2] = target: T1, Sigma non-opioid intracellular receptor 1 (Homo sapiens, UniProt Q99720); test: Displacement of 3H](+)-pentazocine from human sigma1 receptor expressed in HEK293 cell membranes incubated for 120 mins by liquid scintillation counting method; design: species or system Cell membrane
[3] = target: T2, Mu-type opioid receptor (Homo sapiens, UniProt P35372); test: Agonist activity at human MOR expressed in CHOK1 cells assessed as […] of cAMP accumulation at 1 uM incubated for 45 mins by HTRF assay; assay type: functional, cell-based; conditions: CHO-K1
T2 sequence (P35372 whole entry): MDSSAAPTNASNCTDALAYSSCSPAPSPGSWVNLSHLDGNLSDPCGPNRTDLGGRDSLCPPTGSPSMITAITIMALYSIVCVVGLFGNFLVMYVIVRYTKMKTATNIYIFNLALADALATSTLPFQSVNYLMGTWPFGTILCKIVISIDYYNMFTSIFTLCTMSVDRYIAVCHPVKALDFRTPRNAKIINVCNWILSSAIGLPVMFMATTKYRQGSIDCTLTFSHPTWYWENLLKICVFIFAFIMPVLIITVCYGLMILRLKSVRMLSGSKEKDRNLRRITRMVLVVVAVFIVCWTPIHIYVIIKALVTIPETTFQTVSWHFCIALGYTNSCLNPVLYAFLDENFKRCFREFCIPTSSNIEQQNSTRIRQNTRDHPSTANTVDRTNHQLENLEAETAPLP

[4] = target: T2, Mu-type opioid receptor; test: Displacement of [3H]-DAMGO from human MOR expressed in CHOK1 cell membranes incubated for 60 mins by liquid scintillation counting method; design: species or system CHO-K1, Cell membrane
[5] = target: T3, Alpha-1A adrenergic receptor (Homo sapiens) (UniProt P35348); test: Binding affinity to human alpha1A adrenoreceptor expressed in membranes assessed as inhibition of [3H]-prazosin binding incubated for 90 mins by scintillation counting method; design: concentration or dose not given beside the values; conditions: Cell membrane
T3 sequence (whole entry): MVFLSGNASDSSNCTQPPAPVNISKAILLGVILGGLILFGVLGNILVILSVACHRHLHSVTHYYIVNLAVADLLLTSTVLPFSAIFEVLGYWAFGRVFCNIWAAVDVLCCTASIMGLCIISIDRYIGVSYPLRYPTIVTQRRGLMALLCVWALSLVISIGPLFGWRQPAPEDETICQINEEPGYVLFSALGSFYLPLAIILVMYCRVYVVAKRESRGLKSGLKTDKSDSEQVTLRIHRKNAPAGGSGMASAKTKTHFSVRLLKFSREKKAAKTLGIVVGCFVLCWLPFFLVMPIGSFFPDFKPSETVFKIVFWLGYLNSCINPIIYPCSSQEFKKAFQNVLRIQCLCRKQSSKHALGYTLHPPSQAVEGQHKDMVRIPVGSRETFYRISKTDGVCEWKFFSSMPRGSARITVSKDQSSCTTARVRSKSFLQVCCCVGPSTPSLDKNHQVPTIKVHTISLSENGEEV

[6] = target: T2, Mu-type opioid receptor; test: Agonist activity at human MOR expressed in CHOK1 cells assessed as […] of cAMP accumulation incubated for 45 mins by HTRF assay; assay type: functional, cell-based, CHO-K1
[7] = target: T2, Mu-type opioid receptor; test: Displacement of [3H]-DAMGO from human MOR expressed in CHOK1 cell membranes at 1 uM incubated for 60 mins by liquid scintillation counting method; conditions: CHO-K1, Cell membrane
[8] = target: hERG (KCNH2) (Homo sapiens, UniProt Q12809); test: Inhibition of human ERG expressed in CHO cells at 10 uM at -80 mV holding potential by whole cell patch clamp assay; assay type: cell-based; conditions: CHO cells expressing human ERG
hERG (KCNH2), sequence (Q12809 whole entry): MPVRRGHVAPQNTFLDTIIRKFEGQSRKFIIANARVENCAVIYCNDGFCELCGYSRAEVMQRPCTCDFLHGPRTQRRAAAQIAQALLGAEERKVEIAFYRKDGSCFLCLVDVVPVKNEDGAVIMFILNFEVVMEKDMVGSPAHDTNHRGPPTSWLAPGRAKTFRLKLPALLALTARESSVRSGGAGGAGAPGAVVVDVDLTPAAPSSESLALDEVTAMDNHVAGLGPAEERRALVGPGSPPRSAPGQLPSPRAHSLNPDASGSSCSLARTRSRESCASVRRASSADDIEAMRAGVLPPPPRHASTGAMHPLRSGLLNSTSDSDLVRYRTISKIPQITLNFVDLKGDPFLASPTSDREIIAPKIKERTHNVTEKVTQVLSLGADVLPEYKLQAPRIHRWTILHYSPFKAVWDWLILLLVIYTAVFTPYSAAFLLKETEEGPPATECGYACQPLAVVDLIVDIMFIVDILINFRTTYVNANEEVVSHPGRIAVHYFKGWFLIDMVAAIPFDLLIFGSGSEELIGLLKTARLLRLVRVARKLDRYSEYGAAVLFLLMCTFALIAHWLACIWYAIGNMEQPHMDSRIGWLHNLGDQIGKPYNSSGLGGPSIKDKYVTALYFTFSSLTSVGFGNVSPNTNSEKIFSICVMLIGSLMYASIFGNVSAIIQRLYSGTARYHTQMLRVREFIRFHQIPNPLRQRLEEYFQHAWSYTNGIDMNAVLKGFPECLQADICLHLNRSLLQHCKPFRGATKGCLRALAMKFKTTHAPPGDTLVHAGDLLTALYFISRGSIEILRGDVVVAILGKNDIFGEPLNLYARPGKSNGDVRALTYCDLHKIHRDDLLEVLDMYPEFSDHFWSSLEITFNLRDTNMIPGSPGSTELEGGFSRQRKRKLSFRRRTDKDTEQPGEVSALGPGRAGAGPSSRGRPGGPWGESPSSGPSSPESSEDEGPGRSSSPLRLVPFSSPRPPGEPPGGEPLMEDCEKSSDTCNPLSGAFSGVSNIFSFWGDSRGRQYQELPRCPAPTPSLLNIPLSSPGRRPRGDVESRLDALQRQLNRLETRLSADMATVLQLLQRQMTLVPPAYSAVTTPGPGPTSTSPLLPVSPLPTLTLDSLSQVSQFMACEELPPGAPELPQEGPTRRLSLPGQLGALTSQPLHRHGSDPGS

[9] = target: T2, Mu-type opioid receptor; test: Agonist activity at human MOR expressed in CHOK1 cells assessed as […] of cAMP accumulation incubated for 45 mins by HTRF assay relative to DAMGO; assay type: functional, cell-based; conditions: CHO-K1, filed as agonist
[10] = system: Mus musculus; test: Antinociceptive activity in CD1 mouse PSNL model assessed as reduction in mechanical allodynia by measuring decrease in the pressure required to elicit withdrawal of the ipsilateral paw after von Frey filament stimulation at 1.25 mg/kg, ip BID for 11 days from day 13 to day 22; assay type: functional; conditions: 264 h, time 11 day
[11] = target: T1, Sigma non-opioid intracellular receptor 1; test: Displacement of 3H](+)-pentazocine from human sigma1 receptor expressed in HEK293 cell membranes at 10 uM incubated for 120 mins by liquid scintillation counting method; conditions: Cell membrane
[12] = Toxicity in CD1 mouse assessed as inhibition of intestinal transit by measuring percentage of distance traveled by charcoal meal at 20 mg/kg, po; assay type: organism-based; conditions: in vivo
[13] = target: T2, Mu-type opioid receptor; test: Displacement of [3H]-DAMGO from human MOR expressed in CHOK1 cell membranes at 10 uM incubated for 60 mins by liquid scintillation counting method; conditions: CHO-K1, Cell membrane
[14] = target: T2, Mu-type opioid receptor; test: Agonist activity at human MOR expressed in CHOK1 cells assessed as […] of cAMP accumulation at 10 uM incubated for 45 mins by HTRF assay; assay type: functional, cell-based; conditions: CHO-K1

T1 sequence (Q99720 whole entry): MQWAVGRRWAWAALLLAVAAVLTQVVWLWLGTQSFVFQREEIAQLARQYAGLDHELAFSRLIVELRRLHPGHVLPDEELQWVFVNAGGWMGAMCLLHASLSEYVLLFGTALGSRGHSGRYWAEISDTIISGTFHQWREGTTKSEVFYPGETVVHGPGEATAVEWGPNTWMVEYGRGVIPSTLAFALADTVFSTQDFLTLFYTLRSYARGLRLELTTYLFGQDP
Voltage-gated inwardly rectifying potassium channel KCNH2, sequence (Q12809 whole entry): as the sequence (Q12809 whole entry) above

CC1OC2(CCN(CCc3ccccc3)CC2)CN(CCc2ccccc2F)C1=O (stereo unspecified)
IC50 [1]: > 10 µM
Ki [2]: 892 nM
inhibition [3]: < 50%
Ki [4]: > 1000 nM
inhibition [5]: 7%
EC50 [6]: > 1000 nM
inhibition [7]: < 50%
inhibition at 10 µM [8]: < 50%

C[C@@H]1OC2(CCN(CCc3ccccc3)CC2)CN(C)C1=O
Ki [2]: 165 nM
Ki [4]: > 1000 nM
inhibition [5]: 6%
EC50 [6]: 1780 nM
inhibition [7]: < 50%

CCN1CC2(CCN(CCc3cccc(F)c3)CC2)O[C@H](C)C1=O
Ki [2]: 64 nM
Ki [4]: 56 nM
Emax [9]: 83%
inhibition [5]: 42%
EC50 [6]: 56 nM

COc1ccc2c3c1O[C@H]1C(=O)CC[C@@]4(O)[C@@H](C2)N(C)CC[C@]314 [OXYCODONE]
IC50 [1]: > 10 µM
inhibition in vivo at 1.25 mg/kg [10]: 51%
inhibition [11]: < 50%
Activity [12]: Toxic
inhibition at 10 µM [8]: < 50%

CC(C)C1OC2(CCN(CCc3ccccc3)CC2)CN(C)C1=O (stereo unspecified)
IC50 [1]: 6.2 µM
Ki [2]: 122 nM
Ki [4]: 115 nM
Emax [9]: 85%
inhibition [5]: 29%
EC50 [6]: 174 nM

CN1CC2(CCN(CCc3ccccc3)CC2)OCC1=O
Ki [2]: 282 nM
inhibition [3]: < 50%
Ki [4]: > 1000 nM
inhibition [5]: 36%
EC50 [6]: > 1000 nM
inhibition [7]: < 50%

CCN1CC2(CCN(CCc3ccccc3F)CC2)O[C@H](C)C1=O
IC50 [1]: 4 µM
Ki [2]: 68 nM
Ki [4]: 18 nM
Emax [9]: 84%
inhibition [5]: 15%
EC50 [6]: 24 nM

CN1CC2(CCN(CCc3ccccc3)CC2)OC(c2ccccc2)C1=O (stereo unspecified)
Ki [2]: 242 nM
inhibition [3]: < 50%
Ki [4]: > 1000 nM
inhibition [5]: 26%
EC50 [6]: > 1000 nM
inhibition [7]: < 50%

CCN1CC2(CCN(CCc3cc(F)ccc3F)CC2)O[C@@H](C)C1=O
IC50 [1]: > 10 µM
inhibition [5]: 9%
inhibition at 10 µM [8]: < 50%

CN1CC2(CCN(CCc3ccccc3)CC2)OC2(CC2)C1=O
IC50 [1]: 3.6 µM
Ki [2]: 161 nM
Ki [4]: 221 nM
Emax [9]: 85%
inhibition [5]: 41%
EC50 [6]: 442 nM

CCN1CC2(CCN(CCc3ccccn3)CC2)OC2(CC2)C1=O
Ki [2]: 783 nM
Ki [4]: > 1000 nM
inhibition [5]: 0%
EC50 [6]: 1500 nM
inhibition [13]: < 50%

CCN1CC2(CCN(CCc3ccc(F)cc3)CC2)O[C@H](C)C1=O
IC50 [1]: 1.5 µM
Ki [2]: 76 nM
Ki [4]: 164 nM
Emax [9]: 81%
inhibition [5]: 21%
EC50 [6]: 108 nM

CC1OC2(CCN(CCc3ccccc3)CC2)CN(c2ccccc2)C1=O (stereo unspecified)
Emax [9]: 85%
inhibition [5]: 72%

CC1OC2(CCN(CCc3ccccc3)CC2)CN(C(C)C)C1=O (stereo unspecified)
IC50 [1]: 3.9 µM
Ki [2]: 30 nM
Ki [4]: 33 nM
Emax [9]: 100%
inhibition [5]: 35%
EC50 [6]: 21 nM

CC1OC2(CCN(CCc3ccccc3)CC2)CN(CCc2ccccc2)C1=O (stereo unspecified)
IC50 [1]: 0.2 µM
Ki [4]: 20 nM
Emax [9]: 94%
inhibition [5]: 58%
EC50 [6]: 22 nM

C[C@H]1OC2(CCN(CCc3ccccc3)CC2)CN(C)C1=O
IC50 [1]: > 10 µM
Ki [2]: 277 nM
Ki [4]: 91 nM
Emax [9]: 83%
inhibition [5]: 19%
EC50 [6]: 319 nM
inhibition at 10 µM [8]: < 50%

CCN1CC2(CCN(CCc3ccc(F)cc3F)CC2)O[C@H](C)C1=O
IC50 [1]: 2.5 µM
Ki [2]: 94 nM
Ki [4]: 62 nM
Emax [9]: 92%
inhibition [5]: 11%
EC50 [6]: 53 nM

CC1OC2(CCN(CCc3ccccc3)CC2)CN(C)C1=O (stereo unspecified)
IC50 [1]: > 10 µM
Ki [2]: 142 nM
Ki [4]: 156 nM
Emax [9]: 79%
inhibition [5]: 16%
EC50 [6]: 787 nM
inhibition at 10 µM [8]: < 50%

O=C1N(c2cccnc2C(F)(F)F)CC2(CCN(CCc3ccccc3F)CC2)OC12CC2
inhibition [5]: 57%
inhibition at 10 µM [8]: < 50%

Cc1cc(OCCN2CCOCC2)nn1-c1ccc2ccccc2c1
inhibition [14]: < 50%
inhibition [13]: < 50%
inhibition at 10 µM [8]: < 50%

CC[C@H]1OC2(CCN(CCc3ccccc3)CC2)CN(C)C1=O
IC50 [1]: 6.6 µM
Ki [2]: 139 nM
Ki [4]: 192 nM
Emax [9]: 90%
inhibition [5]: 13%
EC50 [6]: 505 nM

C[C@H]1OC2(CCN(CCc3ccccc3)CC2)CN(C2CC2)C1=O
IC50 [1]: 4.5 µM
Ki [4]: 6 nM
Emax [9]: 91%
inhibition [5]: 51%
EC50 [6]: 7 nM

CCN1CC2(CCN(CCc3ccccc3)CC2)O[C@H](C)C1=O
IC50 [1]: 4.7 µM
Ki [2]: 66 nM
Ki [4]: 26 nM
Emax [9]: 83%
inhibition [5]: 14%
EC50 [6]: 49 nM

CCN1CC2(CCN(CCc3cccc(F)c3F)CC2)O[C@H](C)C1=O
IC50 [1]: > 10 µM
Ki [2]: 556 nM
Ki [4]: 22 nM
Emax [9]: 90%
inhibition [5]: 8%
EC50 [6]: 10 nM
inhibition at 10 µM [8]: < 50%

CN1CC2(CCN(CCc3ccccc3)CC2)OC(C)(C)C1=O
Ki [2]: 50 nM
Ki [4]: > 1000 nM
inhibition [5]: 37%
EC50 [6]: 624 nM
inhibition [7]: < 50%

CCN1CC2(CCN(CCc3c(F)cccc3F)CC2)O[C@H](C)C1=O
Ki [2]: 609 nM
Ki [4]: 21 nM
Emax [9]: 95%
inhibition [5]: 10%
EC50 [6]: 16 nM

CC1OC2(CCN(CCc3ccccc3)CC2)CN(Cc2ccccc2)C1=O (stereo unspecified)
IC50 [1]: 0.1 µM
Ki [2]: 10 nM
Ki [4]: 2 nM
Emax [9]: 97%
inhibition [5]: 67%
EC50 [6]: 2 nM

CCN1CC2(CCN(CCc3ccccc3)CC2)OC(C)C1=O (stereo unspecified)
IC50 [1]: 3.1 µM
Ki [2]: 43 nM
Ki [4]: 41 nM
Emax [9]: 84%
inhibition [5]: 27%
EC50 [6]: 65 nM
